In the assay the target is human recombinant H-PGDS (Homo sapiens, UniProt O60760). Briefly: Fluoresecence Intensity h-PGDSTBA Enzyme Assay. The settings on record: 10 min preincubation, 4-parameter fit, highest inhibitor concentration typically 1 μM.
The mark [1] stands for this setting: IC50, 5.0 μM PGH2, 2.5 mM L-Glutathione.

Sequence of human recombinant H-PGDS (O60760 whole entry): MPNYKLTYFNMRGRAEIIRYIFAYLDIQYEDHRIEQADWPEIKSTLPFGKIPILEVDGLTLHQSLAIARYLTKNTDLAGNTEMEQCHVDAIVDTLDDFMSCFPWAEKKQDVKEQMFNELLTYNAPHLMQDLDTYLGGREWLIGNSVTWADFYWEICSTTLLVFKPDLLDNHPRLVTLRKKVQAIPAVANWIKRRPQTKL

On to `CC(C)(C)C(=O)N1CC(NC(=O)c2cnc(-c3cccc(F)c3)nc2)C1` [Example 106, N-[1-(2,2-Dimethylpropanoyl)azetidin-3-yl]-2-(3-fluorophenyl)pyrimidine-5-carboxamide], for which the IC50 under setting [1] came out at 2.98 nM.
The same measure, in the same setting: in the case of `O=C(NC1CCN(C(COc2ccccc2)c2ccccc2)CC1)c1cnc(-c2cccc(F)c2)nc1` (centres unmarked) [Example 38, 2-(3-Fluorophenyl)-N-[1-(2-phenoxy-1-phenylethyl)piperidin-4-yl]pyrimidine-5-carboxamide] it was 6.71 nM; in that of `N#Cc1ccc(C(F)(F)F)nc1N1C[C@H](O)[C@H](NC(=O)c2cnc(-c3cccc(F)c3)nc2)C1` (relative stereo) [Example 100, Cis-N-{1-[3-Cyano-6-(trifluoromethyl)pyridin-2-yl]-4-hydroxypyrrolidin-3-yl}-2-(3-fluorophenyl)pyrimidine-5-carboxamide], 4.47 nM.
On the same count and under the same terms, in the case of `O=C(NC1CCN(C(COc2cccc(F)c2F)c2ccccc2)CC1)c1cnc(-c2cccc(F)c2)nc1` (centres unmarked) [Example 53, N-{1-[2-(2,3-Difluorophenoxy)-1-phenylethyl]piperidin-4-yl}-2-(3-fluorophenyl)pyrimidine-5-carboxamide] it was 59.2 nM.
Same read-out and setting: with `Cc1cc(C)c(C#N)c(N2CC(NC(=O)c3cnc(-c4cccc(F)c4)nc3)C2)n1` [Example 103, N-[1-(3-Cyano-4,6-dimethylpyridin-2-yl)azetidin-3-yl]-2-(3-fluorophenyl)pyrimidine-5-carboxamide] the figure was 0.815 nM.
For `CC(C)(C)OC(=O)N1C[C@H](O)[C@H](NC(=O)c2cnc(-c3cccc(F)c3)nc2)C1` (relative stereo) [Example 94, cis-tert-Butyl 3-(2-(3-fluorophenyl)pyrimidine-5-carboxamido)-4-hydroxypyrrolidine-1-carboxylate], under setting [1], the IC50 came to 1.41 nM.
On the same count and under the same terms, with `O=C(NC1CCN(C(COc2c(F)cccc2F)c2ccccc2)CC1)c1cnc(-c2cccc(F)c2)nc1` (centres unmarked) [Example 30, N-{1-[2-(2,6-Difluorophenoxy)-1-phenylethyl]piperidin-4-yl}-2-(3-fluorophenyl)pyrimidine-5-carboxamide] the figure was 6.55 nM; with `O=C(NC1CCN(C(COc2cc(F)ccc2F)c2ccccc2)CC1)c1cnc(-c2cccc(F)c2)nc1` (centres unmarked) [Example 51, N-{1-[2-(2,5-Difluorophenoxy)-1-phenylethyl]piperidin-4-yl}-2-(3-fluorophenyl)pyrimidine-5-carboxamide], 10 nM.
For `CS(=O)(=O)Nc1cccc(-c2ncc(C(=O)NC3CCN(Cc4ccccn4)CC3)cn2)c1` [Example 176, 2-{3-[(Methylsulfonyl)amino]phenyl}-N-[1-(pyridin-2-ylmethyl)piperidin-4-yl]pyrimidine-5-carboxamide], under setting [1], the concentration for half-maximal inhibition (IC50) was 2700 nM.
The same measure, in the same setting: in the case of `O=C(NC1CCN(C(COc2c(F)cc(F)cc2F)c2ccccc2)CC1)c1cnc(-c2cccc(F)c2)nc1` (centres unmarked) [Example 32, 2-(3-Fluorophenyl)-N-{1-[1-phenyl-2-(2,4,6-trifluorophenoxy)ethyl]piperidin-4-yl}pyrimidine-5-carboxamide] it was 8.91 nM; in that of `COc1cccc(OC)c1CN1CCC(NC(=O)c2cnc(-c3ccccc3)nc2O)CC1` [Example 23, N-[1-(2,6-Dimethoxybenzyl)piperidin-4-yl]-4-hydroxy-2-phenyl-pyrimidine-5-carboxamide], no less than 1000 nM.
The same measure, in the same setting: with `O=C(NC1CCN(Cc2ccccc2)CC1)c1cnc(-c2ccccc2)nc1` [Example 12, N-(1-Benzylpiperidin-4-yl)-2-phenylpyrimidine-5-carboxamide] the figure was 0.428 nM.
`CC(C)N1CCC(NC(=O)c2cnc(-c3ccccc3)nc2O)CC1` [Example 24, 4-Hydroxy-N-(1-isopropylpiperidin-4-yl)-2-phenyl pyrimidine-5-carboxamide]: the IC50 under setting [1] is no less than 1000 nM.
On the same count and under the same terms, in the case of `O=C(NC1CCN(Cc2c(F)ccc(F)c2Cl)C1=O)c1cnc(-c2cccc(F)c2)nc1` (centres unmarked) [Example 85, N-[1-(2-Chloro-3,6-difluorobenzyl)-2-oxopyrrolidin-3-yl]-2-(3-fluorophenyl)pyrimidine-5-carboxamide] it was 2.34 nM; in that of `COc1ccccc1OCC(c1ccccc1)N1CCC(NC(=O)c2cnc(-c3cccc(F)c3)nc2)CC1` (centres unmarked) [Example 54, 2-(3-Fluorophenyl)-N-{1-[2-(2-methoxyphenoxy)-1-phenylethyl]piperidin-4-yl}pyrimidine-5-carboxamide], 6.13 nM; in that of `CC(C)(C)OC(=O)N1C[C@@H]2[C@H](C1)[C@H]2NC(=O)c1cnc(-c2cccc(F)c2)nc1` [Example 71, tert-Butyl (1R,5S,6s)-6-({[2-(3-fluorophenyl)pyrimidin-5-yl]carbonyl}amino)-3-azabicyclo[3.1.0]hexane-3-carboxylate], 0.355 nM.
On the same count and under the same terms, in the case of `O=C(NC1CCN(c2ncc3c(n2)CCC3)C1)c1cnc(-c2cccc(F)c2)nc1` (centres unmarked) [Example 89, N-[1-(6,7-Dihydro-5H-cyclopenta[d]pyrimidin-2-yl)pyrrolidin-3-yl]-2-(3-fluorophenyl)pyrimidine-5-carboxamide] it was 0.147 nM.
Still for that read-out and setting: with `CC(C)N1CCC(NC(=O)c2cnc(-c3cccc(F)c3)nc2)C1` (centres unmarked) [Example 87, 2-(3-Fluorophenyl)-N-(1-isopropylpyrrolidin-3-yl)pyrimidine-5-carboxamide] the figure was 6.57 nM; with `O=C(NC1CCN(Cc2ccc(C(F)(F)F)c(F)c2)CC1)c1cnc(-c2cccc(F)c2)nc1` [Example 37, 2-(3-Fluorophenyl)-N-{1-[3-fluoro-4-(trifluoromethyl)benzyl]piperidin-4-yl}pyrimidine-5-carboxamide], 7.07 nM.
For the compound `Cc1nc(-c2ccccc2)ncc1C(=O)NC1CCN(C(C)C)CC1` [Example 1, N-(1-Isopropylpiperidin-4-yl)-4-methyl-2-phenylpyrimidine-5-carboxamide], the 50% inhibitory concentration (IC50) under setting [1] was 162 nM.
The same measure, in the same setting: in the case of `O=C(NC1CCN(CC(F)(F)F)CC1)c1cnc(-c2cccc(F)c2)nc1` [Example 27, 2-(3-Fluorophenyl)-N-[1-(2,2,2-trifluoroethyl)piperidin-4-yl]pyrimidine-5-carboxamide] it was 0.166 nM; in that of `CCCN1CCC(NC(=O)c2cnc(-c3ccccc3)nc2)CC1` [Example 10, 2-Phenyl-N-(1-propylpiperidin-4-yl) pyrimidine-5-carboxamide], 2 nM; in that of `O=C(NC1CCN(Cc2cccc(Cl)c2)C1=O)c1cnc(-c2cccc(F)c2)nc1` (centres unmarked) [Example 83, N-[1-(3-Chlorobenzyl)-2-oxopyrrolidin-3-yl]-2-(3-fluorophenyl)pyrimidine-5-carboxamide], 1.18 nM.
As to `O=C(NC1CCN(C(COc2c(F)ccc(Cl)c2F)c2ccccc2)CC1)c1cnc(-c2cccc(F)c2)nc1` (centres unmarked) [Example 33, N-{1-[2-(3-Chloro-2,6-difluorophenoxy)-1-phenylethyl]piperidin-4-yl}-2-(3-fluorophenyl)pyrimidine-5-carboxamide], the concentration for half-maximal inhibition (IC50) under setting [1] was found to be 15.5 nM.
The same measure, in the same setting: in the case of `CC(C)(C)OC(=O)N1C[C@H](NC(=O)c2cnc(-c3cccc(F)c3)nc2)[C@@H](F)C1` [Example 92, tert-Butyl (3S,4S)-3-fluoro-4-({[2-(3-fluorophenyl)pyrimidin-5-yl]carbonyl}amino)pyrrolidine-1-carboxylate] it was 2.87 nM; in that of `O=C(N[C@@H]1CCN(Cc2ccccc2)C1)c1cnc(-c2cccc(F)c2)nc1` [Example 79, N-[(3R)-1-Benzylpyrrolidin-3-yl]-2-(3-fluorophenyl)pyrimidine-5-carboxamide], 0.346 nM; in that of `O=C(NC1CCN(Cc2ccc(C(F)(F)F)cc2)CC1)c1cnc(-c2cccc(F)c2)nc1` [Example 67, 2-(3-Fluorophenyl)-N-{1-[4-(trifluoromethyl)benzyl]piperidin-4-yl}pyrimidine-5-carboxamide], 30 nM.
The same measure, in the same setting: with `N#Cc1cccc(OCC(c2ccccc2)N2CCC(NC(=O)c3cnc(-c4cccc(F)c4)nc3)CC2)c1` (centres unmarked) [Example 40, N-{1-[2-(3-Cyanophenoxy)-1-phenylethyl]piperidin-4-yl}-2-(3-fluorophenyl)pyrimidine-5-carboxamide] the figure was 3.02 nM.
Regarding “2-Phenyl-N-[1-(2,2,2- trifluoroethyl) piperidin-4-yl] pyrimidine-5- carboxamide [Example 9]”, where the note is “5.0 μM PGH2, 2.5 mM L-Glutathione”, the IC50 came to 0.275 nM.
In the case of `COc1ccc(OCC(c2ccccc2)N2CCC(NC(=O)c3cnc(-c4cccc(F)c4)nc3)CC2)cc1` (centres unmarked) [Example 58, 2-(3-Fluorophenyl)-N-{1-[2-(4-methoxyphenoxy)-1-phenylethyl]piperidin-4-yl}pyrimidine-5-carboxamide], under setting [1], the 50% inhibitory concentration (IC50) was 2.08 nM.
In the case of `Cc1ccc(Cl)c(OCC(c2ccccc2)N2CCC(NC(=O)c3cnc(-c4cccc(F)c4)nc3)CC2)c1F` (centres unmarked) [Example 43, N-{1-[2-(6-Chloro-2-fluoro-3-methylphenoxy)-1-phenylethyl]piperidin-4-yl}-2-(3-fluorophenyl)pyrimidine-5-carboxamide], the IC50 under setting [1] amounted to 35 nM.
Same read-out and setting: in the case of `CCOC(=O)N1CCC(NC(=O)c2cnc(-c3cccc(F)c3)nc2)C1` (centres unmarked) [Example 82, Ethyl 3-({[2-(3-fluorophenyl)pyrimidin-5-yl]carbonyl}amino)pyrrolidine-1-carboxylate] it was 0.658 nM; in that of `O=C(NC1CCN(Cc2cccc(F)c2)CC1)c1cnc(-c2cccc(F)c2)nc1` [Example 65, N-[1-(3-Fluorobenzyl)piperidin-4-yl]-2-(3-fluorophenyl)pyrimidine-5-carboxamide], 0.335 nM.
Same read-out and setting: in the case of `O=C(NC1CCN(c2ncc3c(n2)CCOC3)CC1)c1cnc(-c2cccc(F)c2)nc1` [Example 76, N-[1-(7,8-Dihydro-5H-pyrano[4,3-d]pyrimidin-2-yl)piperidin-4-yl]-2-(3-fluorophenyl)pyrimidine-5-carboxamide] it was 0.595 nM.
Same read-out and setting: with `CN1CCc2nc(N3CC[C@H](NC(=O)c4cnc(-c5cccc(F)c5)nc4)C3)ncc2C1` [Example 78b, 2-(3-Fluorophenyl)-N-[(3S)-1-(6-methyl-5,6,7,8-tetrahydropyrido[4,3-d]pyrimidin-2-yl)pyrrolidin-3-yl]pyrimidine-5-carboxamide] the figure was 1 nM.

Broadly, the IC50 is the concentration that inhibits the measured activity by half.
